One may read the melting point as the temperature of the solid-liquid transition.

The text below walks through data of patent US8026269B2, “Isoindoline compounds and methods of making and using the same” (Celgene Corporation, priority 2004, dated 2011).

`CCOc1cc([C@@H](CC(=O)N(C)C)N2Cc3cccc(NCC(C)(C)C)c3C2=O)ccc1OC` [Example 6, (3R)-3-[7-(2,2-Dimethyl-propylamino)-1-oxo-1,3-dihydro-isoindol-2-yl]-3-(3-ethoxy-4-methoxyphenyl)-N,N-dimethyl-propionamide] returned a melting point of 111 to 113 °C.

With `CCOc1cc([C@@H](CS(C)(=O)=O)N2Cc3cccc(NCC4CC4)c3C2=O)ccc1OC` [Example 4, (1S)-7-(Cyclopropylmethyl-amino)-2-[1-(3-ethoxy-4-methoxyphenyl)-2-methanesulfonyl-ethyl]-2,3-dihydro-isoindol-1-one], the melting point was in the range of 147 to 149 °C.

`CCOc1cc([C@@H](CC(=O)N(C)C)N2Cc3cccc(NC(=O)N(C)C)c3C2=O)ccc1OC` [Example 15, (3R)-3-(7-(3,3-Dimethyl-ureido)-1-oxo-1,3-dihydro-isoindol-2-yl}-3-(3-ethoxy-4-methoxy-phenyl)-N,N-dimethyl-propionamide] came in with a melting point of 105 to 107 °C.

Compound `CCOc1cc([C@@H](CS(C)(=O)=O)N2C(=O)c3cccc(NC(=O)c4ccco4)c3C2=O)ccc1OC` [Example 2, (1S)-Furan-2-carboxylic Acid {2-[1-(3-ethoxy-4-methoxyphenyl)-2-methanesulfonyl-ethyl]-1,3-dioxo-2,3-dihydro-1H-isoindol-4-yl}-amide] had a melting point of 184 to 186 °C.

As for `CCOc1cc([C@@H](CS(C)(=O)=O)N2C(=O)c3cccc(NC(=O)COC)c3C2=O)ccc1OC` [Example 3, (1S)—N-{2-[1-(3-ethoxy-4-methoxyphenyl)-2-methanesulfonyl-ethyl]-1,3-dioxo-2,3-dihydro-1H-isoindol-4-yl}-2-methoxy-acetamide], the melting point fell in the range of 151 to 153 °C.

Compound `COc1ccc(C(CS(C)(=O)=O)N2C(=O)c3cccc(NC(C)=O)c3C2=O)cc1OCC1CC1` (centres unmarked) [Example 13, N-{2-[1-(3-Cyclopropylmethoxy-4-methoxy-phenyl)-2-methanesulfonyl-ethyl]-1,3-dioxo-2,3-dihydro-1H-isoindol-4-yl}-acetamide] came in with a melting point of 102 to 104 °C.

Take `CCOc1cc(C(CC#N)N2C(=O)c3ccc4ccccc4c3C2=O)ccc1OC` (centres unmarked) [Example 1, 3-(1,3-Dioxobenzo[e]isoindolin-2-yl)-3-(3-ethoxy-4-methoxyphenyl)propanenitrile]: the melting point was in the range of 163 to 165 °C.

In turn, `CCOc1cc(C(CC#N)N2C(=O)c3ccc(NC(N)=O)cc3C2=O)ccc1OC` (centres unmarked) [Example 11] yielded a melting point of 163 to 165 °C.

In turn, `CCOc1cc([C@@H](CS(C)(=O)=O)N2Cc3cccc(NC(=O)N(C)C)c3C2=O)ccc1OC` [Example 16, (1S)-3-{2-[1-(3-Ethoxy-4-methoxy-phenyl)-2-methanesulfonyl-ethyl]-3-oxo-2,3-dihydro-1H-isoindol-4-yl}-1,1-dimethyl-urea] yielded a melting point of 170 to 172 °C.

As for `CCOc1cc(C(CC#N)N2C(=O)c3cccc(NC(N)=O)c3C2=O)ccc1OC` (centres unmarked) [Example 12], the melting point was 179 to 181.5 °C.

`CCOc1cc([C@@H](CS(C)(=O)=O)N2Cc3cccc(NCC(C)C)c3C2=O)ccc1OC` [Example 5, (1S)-2-[1-(3-Ethoxy-4-methoxyphenyl)-2-methanesulfonyl-ethyl]-7-isobutylamino-2,3-dihydro-isoindol-1-one] gave a melting point of 122 to 124 °C.
